What was measured:
Assay type in all cases: in vivo
[1] = test system: Zea mays (ZEAMX, corn, maize, e.g. volunteer corn); assay: Biological Example 1B glasshouse assay, pre-emergence application; conditions: 250 g/ha, 13 days after application
Experimental: (§1) Seeds of a variety of test plant species were sown in standard soil ** in pots. After cultivation for one day (pre-emergence) or after 8 days cultivation (post-emergence) under controlled conditions in a glasshouse (at 24/16° C., day/night; 14 hours light; 65% humidity), the plants were sprayed with an aqueous spray solution derived from the formulation of the technical active ingredient (the test herbicide) in acetone/water (50:50) solution containing 0.5% Tween 20 (polyoxyethylene sorbitan monolaurate, CAS Reg. No. 9005-64-5). The test plants were then grown on under controlled conditions in a glasshouse (at 24/16° C., day/night; 14 hours light; 65% humidity) and watered twice daily. 13 Days after application of the test herbicide, for pre- and post-emergence, the test was evaluated visually for percentage phytotoxicity to each plant (where 100%=total damage to plant; 0%=no damage to plant). Generally, each test herbicide is only tested on 1 plant per plant species for each application rate tested and for each application timing. ** The “standard soil” in Biological Example 1 is usually a “sand” or “sandy loam” type of soil.
(§2) Dicotyledonous weeds: ABUTH=Abutilon theophrasti; AMARE=Amaranthus retroflexus. Grassy monocotyledonous weeds: SETFA=Setaria faberi; ALOMY=Alopecurus myosuroides; ECHCG=Echinochloa crus-galli; ZEAMX=Zea mays (corn, maize, e.g. volunteer corn). For Compound A16, the grassy monocotyledonous weed LOLPE (Lolium perenne) was used in the test insterad of ALOMY.

[2] = test system: Setaria faberi (SETFA); assay: as above; conditions: 250 g/ha, 13 days after application
Experimental: as §1, §2

[3] = test system: Echinochloa crus-galli (ECHCG); assay: as above; conditions: 250 g/ha, 13 days after application
Experimental: as §1, §2

[4] = test system: Abutilon theophrasti (ABUTH); assay: as above; conditions: 250 g/ha, 13 days after application
Experimental: as §1, §2

[5] = test system: Lolium perenne (LOLPE); assay: as above; conditions: 250 g/ha, 13 days after application
Experimental: as §1, §2

[6] = test system: Amaranthus retroflexus (AMARE); assay: as above; conditions: 250 g/ha, 13 days after application
Experimental: as §1, §2

[7] = test system: grassy (in particular warm climate grassy) monocotyledonous weeds; assay: Post-emergence herbicidal activity, summary statements on Biological Examples 1 to 3; conditions: applied at about 250 g/ha post-emergence; Biological Examples 1 and 2
Experimental: as §1
Seeds of a variety of monocotyledonous and dicotyledonous test plants are sown in standard soil in pots. The plants are cultivated for one day (for pre-emergence) or for about 12 days (range=10-13 days) (for post-emergence) under controlled conditions in a glasshouse (warm climate species at 24/18° C., cool climate species at 20/16° C., both at day/night; 16 hours light; 65% humidity). An “instant formulation”, known as the “IF50”, containing 50 g/litre (i.e. 5% w/v) of the “technical” (i.e. unformulated) active ingredient is prepared by dissolving the active ingredient in a mixture of organic solvents and emulsifier, details of which are provided in the Table below. […]
The test plants are then grown on, in a glasshouse (greenhouse) under controlled conditions (at either 24/18° C. or 20/16° C. (day/night) as mentioned above; 16 hours light; 65% humidity) and are watered twice daily. Either 14 or 15 days after application of the herbicide (14 or 15 DAA) (for post-emergence), or 20 days after application of the herbicide (20 DAA) (for pre-emergence), the test plants are evaluated visually, and an assessed percentage phytotoxicity score is given for each herbicidal application on each plant species (where 100%=total damage to plant; 0%=no damage to plant). […]

[8] = test system: Zea mays (ZEAMX, corn, maize, e.g. volunteer corn); assay: Biological Example 1A glasshouse assay, post-emergence application; conditions: Zea mays, 312 h, post-emergence, 13 days after application, read-out: Percentage phytotoxicity ZEAMX
Experimental: as §1, §2

[9] = test system: Setaria faberi (SETFA); assay: as above; conditions: Setaria faberi, 312 h, post-emergence, 13 days after application, read-out: Percentage phytotoxicity SETFA
Experimental: as §1, §2

[10] = test system: Echinochloa crus-galli (ECHCG); assay: as above; conditions: 312 h, 13 days after application, read-out: Percentage phytotoxicity ECHCG
Experimental: as §1, §2

[11] = test system: Abutilon theophrasti (ABUTH); assay: as above; conditions: 312 h, 13 days after application, read-out: Percentage phytotoxicity ABUTH
Experimental: as §1, §2

[12] = test system: Lolium perenne (LOLPE); assay: as above; conditions: 13 days after application
Experimental: as §1, §2

[13] = test system: Amaranthus retroflexus (AMARE); assay: as above; conditions: 312 h, 13 days after application, read-out: Percentage phytotoxicity AMARE
Experimental: as §1, §2

CC#Cc1cc(F)c(C2C(=O)C3C(C2=O)[C@H]2CC[C@@H]3O2)c(OC)c1 (stereo partly shown) [Compound A16]
Percentage phytotoxicity ZEAMX [1]: 90% | Percentage phytotoxicity SETFA [2]: 70% | Percentage phytotoxicity ECHCG [3]: 90% | Percentage phytotoxicity ABUTH [4]: 0% | Percentage phytotoxicity LOLPE [5]: 90% | Percentage phytotoxicity AMARE [6]: 30% | post-emergent herbicidal potency against grassy monocotyledonous weeds (in words) [7]: potent post-emergent herbicides | pest or weed control at 30 g/ha ([8]; 30 g/ha): 90% | pest or weed control at 250 g/ha ([8]; 250 g/ha): 100% | pest or weed control at 30 g/ha ([9]; 30 g/ha): 70% | pest or weed control at 250 g/ha ([9]; 250 g/ha): 90% | pest or weed control at 30 g/ha ([10]; 30 g/ha): 90% | pest or weed control at 250 g/ha ([10]; 250 g/ha): 100% | pest or weed control at 30 g/ha ([11]; 30 g/ha): 0% | pest or weed control at 250 g/ha ([11]; 250 g/ha): 70% | Percentage phytotoxicity LOLPE ([12]; 30 g/ha): 70% | Percentage phytotoxicity LOLPE ([12]; 250 g/ha): 90% | pest or weed control at 30 g/ha ([13]; 30 g/ha): 0% | pest or weed control at 250 g/ha ([13]; 250 g/ha): 10%

Reference: patent publication US10696686B2, “Herbicidally active (alkynyl-phenyl)-substituted cyclic dione compounds and derivatives thereof” (Syngenta Limited, priority 2013, dated 2020)
